From publication PMC6109843, “Novel Quinazolinone Inhibitors of ALK2 Flip between Alternate Binding Modes: Structure–Activity Relationship, Structural Characterization, Kinase Profiling, and Cellular Proof of Concept” (Journal of Medicinal Chemistry, 2018)

Columns and labels:
Experiment in all cases: DiscoverX scanEDGE kinase panel
Type in all cases: binding
Details in all cases: Cmpd Conc 1000 nM, read-out: % Ctrl
[1] = molecular target: T1, ABL1EP (Homo sapiens, UniProt P00519)
T1 construct: purchased DiscoverX (DiscoveRx) KINOMEscan scanEDGE / KdELECT
Description: (§1) We hypothesized that inhibitors of the normal and flipped modes would display distinct selectivity profiles.
(§2) 1. 16 and 21 kinome selectivity data
(§3) (P – phosphorylated; nP – nonphosphorylated; % Ctrl values show the % of DNAEtagged
(§4) kinase which was not displaced from a solid supported ligand by a test compound relative to
(§5) untreated control, quantified by qPCR).
(§6) Please note: ALKs 1, 2, 3, 4, 5 and 6 are listed by their gene symbols: ACVRL1 (ALK1), ACVR1
(§7) (ALK2), BMPR1A (ALK3), ACVR1B (ALK4), TGFBR1 (ALK5) and BMPR1B (ALK6)
(§8) Cmpd DiscoverX Gene Symbol Entrez Gene Symbol % Ctrl Cmpd Conc (nM)

[2] = molecular target: T2, ABL1EnP (Homo sapiens, UniProt P00519)
T2 construct: purchased DiscoverX (DiscoveRx) KINOMEscan scanEDGE / KdELECT
Description: as §1, §2, §3, §4, §5, §6, §7, §8

[3] = molecular target: T3, ABL2 (Homo sapiens, UniProt P42684)
T3 construct: purchased DiscoverX (DiscoveRx) KINOMEscan scanEDGE / KdELECT
T3 sequence (P42684 whole entry): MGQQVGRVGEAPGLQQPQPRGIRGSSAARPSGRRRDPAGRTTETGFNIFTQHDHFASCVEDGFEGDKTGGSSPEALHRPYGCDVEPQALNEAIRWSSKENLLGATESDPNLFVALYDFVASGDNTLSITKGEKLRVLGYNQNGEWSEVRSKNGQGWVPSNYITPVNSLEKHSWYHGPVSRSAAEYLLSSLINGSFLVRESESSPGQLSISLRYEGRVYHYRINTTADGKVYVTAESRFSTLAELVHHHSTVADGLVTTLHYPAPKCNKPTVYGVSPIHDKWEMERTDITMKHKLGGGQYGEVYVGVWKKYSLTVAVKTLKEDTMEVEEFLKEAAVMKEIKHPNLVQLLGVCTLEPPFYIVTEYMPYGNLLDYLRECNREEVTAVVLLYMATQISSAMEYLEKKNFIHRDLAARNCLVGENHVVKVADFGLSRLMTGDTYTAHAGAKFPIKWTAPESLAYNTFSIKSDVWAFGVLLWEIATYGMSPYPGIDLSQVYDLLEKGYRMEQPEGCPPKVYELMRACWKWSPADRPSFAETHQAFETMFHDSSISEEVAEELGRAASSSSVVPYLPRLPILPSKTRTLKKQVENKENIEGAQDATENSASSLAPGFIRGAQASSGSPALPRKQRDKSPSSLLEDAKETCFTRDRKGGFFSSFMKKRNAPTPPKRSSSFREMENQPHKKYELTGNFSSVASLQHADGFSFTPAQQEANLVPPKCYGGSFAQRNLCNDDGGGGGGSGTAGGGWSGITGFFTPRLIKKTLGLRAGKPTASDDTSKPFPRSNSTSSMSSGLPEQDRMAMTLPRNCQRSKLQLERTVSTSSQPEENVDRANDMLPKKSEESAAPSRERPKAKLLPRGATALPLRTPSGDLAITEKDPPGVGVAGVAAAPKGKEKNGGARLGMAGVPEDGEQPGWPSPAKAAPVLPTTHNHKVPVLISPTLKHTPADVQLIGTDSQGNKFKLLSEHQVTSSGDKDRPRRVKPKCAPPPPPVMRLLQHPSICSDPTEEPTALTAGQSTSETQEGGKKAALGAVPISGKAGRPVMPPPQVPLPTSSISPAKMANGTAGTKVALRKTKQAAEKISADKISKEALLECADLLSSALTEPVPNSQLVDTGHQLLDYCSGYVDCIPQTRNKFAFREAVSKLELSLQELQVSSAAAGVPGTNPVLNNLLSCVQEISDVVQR
Description: as §1, §2, §3, §4, §5, §6, §7, §8

[4] = molecular target: T4, ACVR2B (Homo sapiens, UniProt Q13705)
T4 construct: purchased DiscoverX (DiscoveRx) KINOMEscan scanEDGE / KdELECT
Description: as §1, §2, §3, §4, §5, §6, §7, §8

[5] = molecular target: T5, AKT1 (Homo sapiens, UniProt P31749)
T5 construct: purchased DiscoverX (DiscoveRx) KINOMEscan scanEDGE / KdELECT
Description: as §1, §2, §3, §4, §5, §6, §7, §8

[6] = molecular target: T6, AKT2 (Homo sapiens, UniProt P31751)
T6 construct: purchased DiscoverX (DiscoveRx) KINOMEscan scanEDGE / KdELECT
Description: as §1, §2, §3, §4, §5, §6, §7, §8

[7] = molecular target: T7, ALK (Homo sapiens, UniProt Q9UM73)
T7 construct: purchased DiscoverX (DiscoveRx) KINOMEscan scanEDGE / KdELECT
T7 sequence (Q9UM73 19-1620): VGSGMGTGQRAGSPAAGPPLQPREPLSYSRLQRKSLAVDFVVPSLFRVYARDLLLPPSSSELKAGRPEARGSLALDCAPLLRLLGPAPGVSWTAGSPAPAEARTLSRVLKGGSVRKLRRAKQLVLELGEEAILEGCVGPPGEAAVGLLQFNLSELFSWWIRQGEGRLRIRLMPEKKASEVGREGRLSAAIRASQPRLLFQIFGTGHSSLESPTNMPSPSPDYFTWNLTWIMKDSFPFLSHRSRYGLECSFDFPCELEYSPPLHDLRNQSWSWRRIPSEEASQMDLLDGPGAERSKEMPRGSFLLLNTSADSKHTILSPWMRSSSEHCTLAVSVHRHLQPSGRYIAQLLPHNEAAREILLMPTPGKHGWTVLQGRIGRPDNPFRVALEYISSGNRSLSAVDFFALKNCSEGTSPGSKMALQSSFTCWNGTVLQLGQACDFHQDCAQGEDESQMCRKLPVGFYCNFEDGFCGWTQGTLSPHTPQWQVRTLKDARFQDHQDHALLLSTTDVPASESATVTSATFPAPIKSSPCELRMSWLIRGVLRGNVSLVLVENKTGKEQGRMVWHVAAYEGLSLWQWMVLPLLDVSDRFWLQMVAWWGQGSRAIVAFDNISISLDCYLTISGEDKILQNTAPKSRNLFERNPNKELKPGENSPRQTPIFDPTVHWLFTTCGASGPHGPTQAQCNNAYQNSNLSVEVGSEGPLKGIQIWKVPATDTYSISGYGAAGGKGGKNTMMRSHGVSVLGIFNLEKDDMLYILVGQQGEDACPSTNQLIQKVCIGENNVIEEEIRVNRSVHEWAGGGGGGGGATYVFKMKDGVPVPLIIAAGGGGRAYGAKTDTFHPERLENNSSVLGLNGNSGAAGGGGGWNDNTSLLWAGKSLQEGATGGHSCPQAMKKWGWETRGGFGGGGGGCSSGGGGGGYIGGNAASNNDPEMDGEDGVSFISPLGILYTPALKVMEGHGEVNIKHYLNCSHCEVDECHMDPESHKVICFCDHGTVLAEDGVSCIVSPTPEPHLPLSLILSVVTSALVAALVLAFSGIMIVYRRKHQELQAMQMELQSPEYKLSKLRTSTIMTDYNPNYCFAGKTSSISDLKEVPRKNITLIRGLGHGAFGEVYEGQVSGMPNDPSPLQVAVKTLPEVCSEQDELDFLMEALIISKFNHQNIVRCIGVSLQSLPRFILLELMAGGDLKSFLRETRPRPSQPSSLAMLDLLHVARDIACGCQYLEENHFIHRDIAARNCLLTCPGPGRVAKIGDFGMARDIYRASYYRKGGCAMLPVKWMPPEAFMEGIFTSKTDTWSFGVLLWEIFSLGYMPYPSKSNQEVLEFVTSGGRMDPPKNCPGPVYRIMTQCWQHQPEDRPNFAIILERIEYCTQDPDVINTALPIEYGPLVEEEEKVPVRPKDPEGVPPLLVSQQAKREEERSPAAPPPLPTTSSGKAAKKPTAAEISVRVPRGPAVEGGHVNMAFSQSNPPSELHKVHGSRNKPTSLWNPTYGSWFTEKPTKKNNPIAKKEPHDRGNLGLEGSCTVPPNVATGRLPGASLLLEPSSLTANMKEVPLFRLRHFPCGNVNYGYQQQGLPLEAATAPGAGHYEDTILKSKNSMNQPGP
Description: as §1, §2, §3, §4, §5, §6, §7, §8

[8] = molecular target: T8, AURKA (Homo sapiens, UniProt O14965)
T8 construct: purchased DiscoverX (DiscoveRx) KINOMEscan scanEDGE / KdELECT
Description: as §1, §2, §3, §4, §5, §6, §7, §8

[9] = molecular target: T9, AXL (Homo sapiens, UniProt P30530)
T9 construct: purchased DiscoverX (DiscoveRx) KINOMEscan scanEDGE / KdELECT
Description: as §1, §2, §3, §4, §5, §6, §7, §8

[10] = molecular target: T10, CDK11 (Homo sapiens, UniProt Q9BWU1)
T10 construct: purchased DiscoverX (DiscoveRx) KINOMEscan scanEDGE / KdELECT
T10 sequence (Q9BWU1 whole entry): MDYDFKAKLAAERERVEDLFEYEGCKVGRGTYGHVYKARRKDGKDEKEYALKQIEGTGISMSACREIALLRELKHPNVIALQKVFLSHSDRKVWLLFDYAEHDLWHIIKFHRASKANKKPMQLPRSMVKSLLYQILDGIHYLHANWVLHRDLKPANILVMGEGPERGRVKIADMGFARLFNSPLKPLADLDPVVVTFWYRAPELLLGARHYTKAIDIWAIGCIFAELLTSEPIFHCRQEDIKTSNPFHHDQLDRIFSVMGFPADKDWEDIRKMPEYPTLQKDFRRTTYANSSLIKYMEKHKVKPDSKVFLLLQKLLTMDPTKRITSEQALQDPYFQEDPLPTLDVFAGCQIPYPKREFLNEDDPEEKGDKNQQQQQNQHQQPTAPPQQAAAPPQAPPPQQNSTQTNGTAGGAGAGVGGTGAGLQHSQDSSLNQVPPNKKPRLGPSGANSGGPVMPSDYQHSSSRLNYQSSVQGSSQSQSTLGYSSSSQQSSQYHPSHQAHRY
Description: as §1, §2, §3, §4, §5, §6, §7, §8

[11] = molecular target: T11, CDK2 (Homo sapiens, UniProt P24941)
T11 construct: purchased DiscoverX (DiscoveRx) KINOMEscan scanEDGE / KdELECT
Description: as §1, §2, §3, §4, §5, §6, §7, §8

[12] = molecular target: T12, CDK3 (Homo sapiens, UniProt Q00526)
T12 construct: purchased DiscoverX (DiscoveRx) KINOMEscan scanEDGE / KdELECT
Description: as §1, §2, §3, §4, §5, §6, §7, §8

[13] = molecular target: T13, CDK9 (Homo sapiens, UniProt P50750)
T13 construct: purchased DiscoverX (DiscoveRx) KINOMEscan scanEDGE / KdELECT
T13 sequence (P50750 whole entry): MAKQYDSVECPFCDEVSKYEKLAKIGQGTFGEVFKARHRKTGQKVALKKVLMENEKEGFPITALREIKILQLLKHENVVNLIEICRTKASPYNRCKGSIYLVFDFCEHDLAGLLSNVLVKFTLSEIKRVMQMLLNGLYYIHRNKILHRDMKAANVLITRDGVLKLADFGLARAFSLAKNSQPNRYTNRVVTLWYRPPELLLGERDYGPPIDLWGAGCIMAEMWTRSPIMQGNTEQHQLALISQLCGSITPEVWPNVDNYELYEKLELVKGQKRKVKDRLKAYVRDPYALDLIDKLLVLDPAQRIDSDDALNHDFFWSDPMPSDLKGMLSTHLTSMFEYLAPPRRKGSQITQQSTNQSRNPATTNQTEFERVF
Description: as §1, §2, §3, §4, §5, §6, §7, §8

[14] = molecular target: T14, CSNK1D (Homo sapiens, UniProt P48730)
T14 construct: purchased DiscoverX (DiscoveRx) KINOMEscan scanEDGE / KdELECT
Description: as §1, §2, §3, §4, §5, §6, §7, §8

[15] = molecular target: T15, EGFR(L858R) (Homo sapiens, UniProt P00533, L858R)
T15 construct: purchased DiscoverX (DiscoveRx) KINOMEscan scanEDGE / KdELECT
Description: as §1, §2, §3, §4, §5, §6, §7, §8

[16] = molecular target: T16, EPHA2 (Homo sapiens, UniProt P29317)
T16 construct: purchased DiscoverX (DiscoveRx) KINOMEscan scanEDGE / KdELECT
Description: as §1, §2, §3, §4, §5, §6, §7, §8

[17] = molecular target: T17, FGFR3 (Homo sapiens, UniProt P22607)
T17 construct: purchased DiscoverX (DiscoveRx) KINOMEscan scanEDGE / KdELECT
Description: as §1, §2, §3, §4, §5, §6, §7, §8

[18] = molecular target: T18, FLT3 (Homo sapiens, UniProt P36888)
T18 construct: purchased DiscoverX (DiscoveRx) KINOMEscan scanEDGE / KdELECT
Description: as §1, §2, §3, §4, §5, §6, §7, §8

[19] = molecular target: T19, KIT(V559D,T670I) (Homo sapiens, UniProt P10721, T670I/V559D)
T19 construct: purchased DiscoverX (DiscoveRx) KINOMEscan scanEDGE / KdELECT
Description: as §1, §2, §3, §4, §5, §6, §7, §8

[20] = molecular target: T20, MARK3 (Homo sapiens, UniProt P27448)
T20 construct: purchased DiscoverX (DiscoveRx) KINOMEscan scanEDGE / KdELECT
Description: as §1, §2, §3, §4, §5, §6, §7, §8

[21] = molecular target: T21, MEK2 (Homo sapiens, UniProt P36507)
T21 construct: purchased DiscoverX (DiscoveRx) KINOMEscan scanEDGE / KdELECT
Description: as §1, §2, §3, §4, §5, §6, §7, §8

[22] = molecular target: T22, MLK1 (Homo sapiens, UniProt P80192)
T22 construct: purchased DiscoverX (DiscoveRx) KINOMEscan scanEDGE / KdELECT
T22 sequence (P80192 whole entry): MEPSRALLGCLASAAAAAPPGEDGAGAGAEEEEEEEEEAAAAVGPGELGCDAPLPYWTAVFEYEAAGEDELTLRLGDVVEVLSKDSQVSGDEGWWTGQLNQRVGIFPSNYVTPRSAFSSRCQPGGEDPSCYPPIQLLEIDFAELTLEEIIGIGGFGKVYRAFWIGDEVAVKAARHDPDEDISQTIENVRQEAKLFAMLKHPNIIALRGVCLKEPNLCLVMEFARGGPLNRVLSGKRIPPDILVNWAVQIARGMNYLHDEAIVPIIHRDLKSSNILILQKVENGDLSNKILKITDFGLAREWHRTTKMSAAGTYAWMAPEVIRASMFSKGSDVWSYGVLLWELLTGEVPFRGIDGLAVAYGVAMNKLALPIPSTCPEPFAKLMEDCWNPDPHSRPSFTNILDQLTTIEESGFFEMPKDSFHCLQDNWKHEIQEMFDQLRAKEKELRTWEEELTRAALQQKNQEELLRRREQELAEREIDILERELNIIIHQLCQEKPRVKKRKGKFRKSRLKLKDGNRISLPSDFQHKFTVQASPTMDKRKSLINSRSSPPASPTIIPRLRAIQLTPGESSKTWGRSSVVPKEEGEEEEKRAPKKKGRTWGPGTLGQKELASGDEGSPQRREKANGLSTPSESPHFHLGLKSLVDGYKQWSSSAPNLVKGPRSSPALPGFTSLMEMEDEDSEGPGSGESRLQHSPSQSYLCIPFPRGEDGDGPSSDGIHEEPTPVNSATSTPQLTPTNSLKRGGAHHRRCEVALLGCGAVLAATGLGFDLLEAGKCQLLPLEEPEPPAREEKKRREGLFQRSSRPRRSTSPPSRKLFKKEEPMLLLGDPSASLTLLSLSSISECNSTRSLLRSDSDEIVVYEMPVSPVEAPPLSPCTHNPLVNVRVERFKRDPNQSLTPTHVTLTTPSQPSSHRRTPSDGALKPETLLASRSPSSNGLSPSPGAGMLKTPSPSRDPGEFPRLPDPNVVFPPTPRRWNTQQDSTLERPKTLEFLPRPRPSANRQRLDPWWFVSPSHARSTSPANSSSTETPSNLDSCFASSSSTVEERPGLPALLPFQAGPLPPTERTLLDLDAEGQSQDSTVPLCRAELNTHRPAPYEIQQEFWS
Description: as §1, §2, §3, §4, §5, §6, §7, §8

[23] = molecular target: T23, NEK7 (Homo sapiens, UniProt Q8TDX7)
T23 construct: purchased DiscoverX (DiscoveRx) KINOMEscan scanEDGE / KdELECT
Description: as §1, §2, §3, §4, §5, §6, §7, §8

[24] = molecular target: T24, PCTK1 (Homo sapiens, UniProt Q00536)
T24 construct: purchased DiscoverX (DiscoveRx) KINOMEscan scanEDGE / KdELECT
Description: as §1, §2, §3, §4, §5, §6, §7, §8

[25] = molecular target: T25, PDGFRA (Homo sapiens, UniProt P16234)
T25 construct: purchased DiscoverX (DiscoveRx) KINOMEscan scanEDGE / KdELECT
Description: as §1, §2, §3, §4, §5, §6, §7, §8

[26] = molecular target: T26, PDGFRB (Homo sapiens, UniProt P09619)
T26 construct: purchased DiscoverX (DiscoveRx) KINOMEscan scanEDGE / KdELECT
Description: as §1, §2, §3, §4, §5, §6, §7, §8

[27] = molecular target: T27, PDPK1 (Homo sapiens, UniProt O15530)
T27 construct: purchased DiscoverX (DiscoveRx) KINOMEscan scanEDGE / KdELECT
Description: as §1, §2, §3, §4, §5, §6, §7, §8

[28] = molecular target: T28, PIK3C2B (Homo sapiens, UniProt O00750)
T28 construct: purchased DiscoverX (DiscoveRx) KINOMEscan scanEDGE / KdELECT
Description: as §1, §2, §3, §4, §5, §6, §7, §8

[29] = molecular target: T29, PIK3CG (Homo sapiens, UniProt P48736)
T29 construct: purchased DiscoverX (DiscoveRx) KINOMEscan scanEDGE / KdELECT
Description: as §1, §2, §3, §4, §5, §6, §7, §8

[30] = molecular target: T30, PIM1 (Homo sapiens, UniProt P11309)
T30 construct: purchased DiscoverX (DiscoveRx) KINOMEscan scanEDGE / KdELECT
T30 sequence (P11309 whole entry): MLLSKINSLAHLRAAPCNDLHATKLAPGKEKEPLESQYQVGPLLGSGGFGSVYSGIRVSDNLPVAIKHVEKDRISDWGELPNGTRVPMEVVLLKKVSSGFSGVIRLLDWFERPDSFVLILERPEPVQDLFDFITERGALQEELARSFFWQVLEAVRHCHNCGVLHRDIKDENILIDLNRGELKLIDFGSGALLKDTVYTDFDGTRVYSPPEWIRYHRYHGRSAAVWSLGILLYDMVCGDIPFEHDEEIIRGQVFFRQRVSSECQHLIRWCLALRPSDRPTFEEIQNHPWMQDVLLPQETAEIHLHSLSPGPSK
Description: as §1, §2, §3, §4, §5, §6, §7, §8

[31] = molecular target: T31, RIOK2 (Homo sapiens, UniProt Q9BVS4)
T31 construct: purchased DiscoverX (DiscoveRx) KINOMEscan scanEDGE / KdELECT
Description: as §1, §2, §3, §4, §5, §6, §7, §8

[32] = molecular target: T32, RSK2(Kin.Dom.1ENEterminal) (Homo sapiens, UniProt P51812)
T32 construct: RSK2(Kin.Dom.1ENEterminal); purchased DiscoverX (DiscoveRx) KINOMEscan scanEDGE / KdELECT
Description: as §1, §2, §3, §4, §5, §6, §7, §8

[33] = molecular target: T33, SNARK (Homo sapiens, UniProt Q9H093)
T33 construct: purchased DiscoverX (DiscoveRx) KINOMEscan scanEDGE / KdELECT
Description: as §1, §2, §3, §4, §5, §6, §7, §8

[34] = molecular target: T34, SRC (Homo sapiens, UniProt P12931)
T34 construct: purchased DiscoverX (DiscoveRx) KINOMEscan scanEDGE / KdELECT
Description: as §1, §2, §3, §4, §5, §6, §7, §8

[35] = molecular target: T35, SRPK3 (Homo sapiens, UniProt Q9UPE1)
T35 construct: purchased DiscoverX (DiscoveRx) KINOMEscan scanEDGE / KdELECT
Description: as §1, §2, §3, §4, §5, §6, §7, §8

[36] = molecular target: T36, TRKA (Homo sapiens, UniProt P04629)
T36 construct: purchased DiscoverX (DiscoveRx) KINOMEscan scanEDGE / KdELECT
Description: as §1, §2, §3, §4, §5, §6, §7, §8

[37] = molecular target: T37, VEGFR2 (Homo sapiens, UniProt P35968)
T37 construct: purchased DiscoverX (DiscoveRx) KINOMEscan scanEDGE / KdELECT
Description: as §1, §2, §3, §4, §5, §6, §7, §8

[38] = molecular target: T38, YANK3 (Homo sapiens, UniProt Q86UX6)
T38 construct: purchased DiscoverX (DiscoveRx) KINOMEscan scanEDGE / KdELECT
Description: as §1, §2, §3, §4, §5, §6, §7, §8

[39] = molecular target: T39, p38Ealpha (Homo sapiens, UniProt Q16539)
T39 construct: purchased DiscoverX (DiscoveRx) KINOMEscan scanEDGE / KdELECT
Description: as §1, §2, §3, §4, §5, §6, §7, §8

remaining binding at 1 µM [1] [%]	remaining binding at 1 µM [2] [%]	remaining binding at 1 µM [3] [%]	remaining binding at 1 µM [4] [%]	remaining binding at 1 µM [5] [%]	remaining binding at 1 µM [6] [%]	remaining binding at 1 µM [7] [%]	remaining binding at 1 µM [8] [%]	remaining binding at 1 µM [9] [%]	remaining binding at 1 µM [10] [%]	remaining binding at 1 µM [11] [%]	remaining binding at 1 µM [12] [%]	remaining binding at 1 µM [13] [%]	remaining binding at 1 µM [14] [%]	remaining binding at 1 µM [15] [%]	remaining binding at 1 µM [16] [%]	remaining binding at 1 µM [17] [%]	remaining binding at 1 µM [18] [%]	remaining binding at 1 µM [19] [%]	remaining binding at 1 µM [20] [%]	SMILES	also measured
77	76	97	98	94	86	99	100	96	68	95	100	94	68	63	100	100	83	100	90	O=c1c2cc(-c3ccnc4ccccc34)ccc2ncn1-c1ccc(N2CCOCC2)cc1 [compound 16, 3-(4-Morpholinophenyl)-6-(quinolin-4-yl)quinazolin-4(3H)-one]	remaining binding at 1 µM [21]: 85%; remaining binding at 1 µM [22]: 97%; remaining binding at 1 µM [23]: 97%; remaining binding at 1 µM [24]: 87%; remaining binding at 1 µM [25]: 8.7%; remaining binding at 1 µM [26]: 20%; remaining binding at 1 µM [27]: 84%; remaining binding at 1 µM [28]: 100%; remaining binding at 1 µM [29]: 100%; remaining binding at 1 µM [30]: 92%; remaining binding at 1 µM [31]: 100%; remaining binding at 1 µM [32]: 100%; remaining binding at 1 µM [33]: 100%; remaining binding at 1 µM [34]: 88%; remaining binding at 1 µM [35]: 79%; remaining binding at 1 µM [36]: 76%; remaining binding at 1 µM [37]: 95%; remaining binding at 1 µM [38]: 86%; remaining binding at 1 µM [39]: 100%
97	91	93	67	100	93	100	100	98	90	100	94	100	88	98	100	100	92	98	83	Cc1nc2ccc(-c3ccnc4ccccc34)c(C)c2c(=O)[nH]1 [compound 21, 2,5-Dimethyl-6-(quinolin-4-yl)quinazolin-4(3H)-one]	remaining binding at 1 µM [21]: 79%; remaining binding at 1 µM [22]: 91%; remaining binding at 1 µM [23]: 100%; remaining binding at 1 µM [24]: 94%; remaining binding at 1 µM [25]: 93%; remaining binding at 1 µM [26]: 81%; remaining binding at 1 µM [27]: 95%; remaining binding at 1 µM [28]: 98%; remaining binding at 1 µM [29]: 98%; remaining binding at 1 µM [30]: 60%; remaining binding at 1 µM [31]: 97%; remaining binding at 1 µM [32]: 97%; remaining binding at 1 µM [33]: 100%; remaining binding at 1 µM [34]: 98%; remaining binding at 1 µM [35]: 96%; remaining binding at 1 µM [36]: 93%; remaining binding at 1 µM [37]: 99%; remaining binding at 1 µM [38]: 95%; remaining binding at 1 µM [39]: 90%
